Data set [1] is described as follows: Whole Blood Stability Assay (mouse whole blood). The format is in vitro ADME. As to conditions: CD-1 mouse blood, EDTA-K2, final conc. 2 μM, 37° C., 0-120 min; for half-life at 2 μM: male, fresh whole blood, read-out: Mouse Whole Blood Stability t1/2. The essentials:
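Compound at 2 μM final was incubated at 37 °C in fresh EDTA-K2 blood from male CD-1 mice. Samples at 0, 10, 30, 60 and 120 min were protein-precipitated with acetonitrile and analysed by LC-MS/MS. % remaining was derived from analyte/internal-standard peak area ratios.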

A short description of data set [2]: Plasma Stability Assay (human plasma). The format is in vitro ADME. The following applies: both sexes; pooled human plasma, heparin, final conc. 2 μM, 37° C., 0-120 min; read-out: Human Plasma Stability t1/2. The essentials: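 Compound at 2 μM final in pooled heparinised plasma (3 male, 3 female), incubated at 37° C with sampling at 0, 10, 30, 60 and 120 min. Acetonitrile stop, LC-MS/MS; % remaining from analyte/internal-standard peak area ratio relative to T0.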

`CCc1c(F)ccc2cc(OC(=O)N3CCC[C@H](C)C3)cc(N3CCc4c(nc(OC[C@@]56CCCN5C[C@H](F)C6)nc4N4CCC[C@]5(C4)NC(=O)NC5=O)C3)c12` [Example 59, 4-(4-((R)-2,4-dioxo-1,3,7-triazaspiro[4.5]decan-7-yl)-2-(((2R,7aS)-2-fluorotetrahydro-1H-pyrrolizin-7a(5H)-yl)methoxy)-5,8-dihydropyrido[3,4-d]pyrimidin-7(6H)-yl)-5-ethyl-6-fluoronaphthalen-2-yl (S)-3-methylpiperidine-1-carboxylate]: the half-life at 2 μM in data set [1] and in data set [2] was > 289 min in each case.

As to `CCc1c(F)ccc2cc(OC(=O)N3CCOCC3)cc(N3CCc4c(nc(OC[C@@]56CCCN5C[C@H](F)C6)nc4N4CCC[C@]5(C4)NC(=O)NC5=O)C3)c12` [Example 60, 4-(4-((R)-2,4-dioxo-1,3,7-triazaspiro[4.5]decan-7-yl)-2-(((2R,7aS)-2-fluorotetrahydro-1H-pyrrolizin-7a(5H)-yl)methoxy)-5,8-dihydropyrido[3,4-d]pyrimidin-7(6H)-yl)-5-ethyl-6-fluoronaphthalen-2-yl morpholine-4-carboxylate], the half-life at 2 μM was 79 min in data set [1] and > 289 min in data set [2].

Consider `CCc1c(F)ccc2cc(OC(=O)C3(C)CCC3)cc(N3CCc4c(nc(OC[C@@]56CCCN5C[C@H](F)C6)nc4N4CCC[C@]5(C4)NC(=O)NC5=O)C3)c12` [Example 61, 4-(4-((R)-2,4-dioxo-1,3,7-triazaspiro[4.5]decan-7-yl)-2-(((2R,7aS)-2-fluorotetrahydro-1H-pyrrolizin-7a(5H)-yl)methoxy)-5,8-dihydropyrido[3,4-d]pyrimidin-7(6H)-yl)-5-ethyl-6-fluoronaphthalen-2-yl 1-methylcyclobutane-1-carboxylate], for which the half-life at 2 μM in data set [1] was 2 min; in data set [2] it was > 289 min.

`CCc1c(F)ccc2cc(OC(=O)C3(C)COC3)cc(N3CCc4c(nc(OC[C@@]56CCCN5C[C@H](F)C6)nc4N4CCC[C@]5(C4)NC(=O)NC5=O)C3)c12` [Example 62, 4-(4-((R)-2,4-dioxo-1,3,7-triazaspiro[4.5]decan-7-yl)-2-(((2R,7aS)-2-fluorotetrahydro-1H-pyrrolizin-7a(5H)-yl)methoxy)-5,8-dihydropyrido[3,4-d]pyrimidin-7(6H)-yl)-5-ethyl-6-fluoronaphthalen-2-yl 3-methyloxetane-3-carboxylate]: the “Mouse Whole Blood Stability t1/2” value in data set [1] came to 1 min. Besides, in data set [2], the half-life at 2 μM stood at 38 min.

Consider `CCc1c(F)ccc2cc(OC(=O)C34CC5CC(CC(C5)C3)C4)cc(N3CCc4c(nc(OC[C@@]56CCCN5C[C@H](F)C6)nc4N4CCC[C@]5(C4)NC(=O)NC5=O)C3)c12` [Example 63, 4-(4-((R)-2,4-dioxo-1,3,7-triazaspiro[4.5]decan-7-yl)-2-(((2R,7aS)-2-fluorotetrahydro-1H-pyrrolizin-7a(5H)-yl)methoxy)-5,8-dihydropyrido[3,4-d]pyrimidin-7(6H)-yl)-5-ethyl-6-fluoronaphthalen-2-yl (3r,5r,7r)-adamantane-1-carboxylate], for which the half-life at 2 μM in data set [1] was 13 min; in data set [2], > 289 min.

Consider `CCc1c(F)ccc2cc(OC(=O)C3CCC3)cc(N3CCc4c(nc(OC[C@@]56CCCN5C[C@H](F)C6)nc4N4CCC[C@]5(C4)NC(=O)NC5=O)C3)c12` [Example 64, 4-(4-((R)-2,4-dioxo-1,3,7-triazaspiro[4.5]decan-7-yl)-2-(((2R,7aS)-2-fluorotetrahydro-1H-pyrrolizin-7a(5H)-yl)methoxy)-5,8-dihydropyrido[3,4-d]pyrimidin-7(6H)-yl)-5-ethyl-6-fluoronaphthalen-2-yl cyclobutanecarboxylate], for which the figures for the half-life at 2 μM in data set [1] and in data set [2] were 2 min and 33 min, respectively.

For the compound `CCc1c(F)ccc2cc(OC(=O)C34CCC(CC3)CC4)cc(N3CCc4c(nc(OC[C@@]56CCCN5C[C@H](F)C6)nc4N4CCC[C@]5(C4)NC(=O)NC5=O)C3)c12` [Example 66, 4-(4-((R)-2,4-dioxo-1,3,7-triazaspiro[4.5]decan-7-yl)-2-(((2R,7aS)-2-fluorotetrahydro-1H-pyrrolizin-7a(5H)-yl)methoxy)-5,8-dihydropyrido[3,4-d]pyrimidin-7(6H)-yl)-5-ethyl-6-fluoronaphthalen-2-yl bicyclo[2.2.2]octane-1-carboxylate], the results for the half-life at 2 μM in data set [1] and in data set [2] were 7 min and > 289 min, respectively.

Turning to `CCc1c(F)ccc2cc(OC(=O)C34CCC(C3)C4)cc(N3CCc4c(nc(OC[C@@]56CCCN5C[C@H](F)C6)nc4N4CCC[C@]5(C4)NC(=O)NC5=O)C3)c12` [Example 67, 4-(4-((R)-2,4-dioxo-1,3,7-triazaspiro[4.5]decan-7-yl)-2-(((2R,7aS)-2-fluorotetrahydro-1H-pyrrolizin-7a(5H)-yl)methoxy)-5,8-dihydropyrido[3,4-d]pyrimidin-7(6H)-yl)-5-ethyl-6-fluoronaphthalen-2-yl bicyclo[2.1.1]hexane-1-carboxylate], the “Mouse Whole Blood Stability t1/2” value in data set [1] is listed as 1 min. Besides, the half-life at 2 μM in data set [2] is 267 min.

(Values after US20250376483A1, “PRODRUGS OF PAN-KRAS INHIBITORS” (Mirati Therapeutics, Inc., priority 2022, published 2025).)
